The source of these data is patent publication US10821115B2, “Compounds that inhibit Mcl-1 protein” (priority 2017, dated 2020).

Structures are written as SMILES. Like-named read-outs stand apart in the source and are kept apart here.

In test [1] the test system is human multiple myeloma cell line, OPM-2. Kind of test: Cell viability assay (OPM-2 10 FBS), CellTiter-Glo. In kind it is cell-based. The method, boiled down:
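IC50 values come from 4-parameter logistic fits of luminescence signals reflecting cell viability. Treatment lasted 16 h at 37 °C in complete medium with 10% FBS, starting from 3000 cells/well.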
(In ATP-based viability assays light output follows the ATP content of the culture.)

Test [2] deals with recombinant human Mcl-1 (residues 171-327) / Bim interaction (Homo sapiens (Human), UniProt Q07820). Nature of the test: biochemical. In kind it is binding. The note with it: read-out: Mcl-1 HTRF IC50. (In general: In TR-FRET formats the signal depends on donor and acceptor labels being close together.)
Setting [3] is: Homo sapiens, OPM-2, 16 h, read-out: OPM-2 10% FBS IC50 IP, OPM-2 cells, 10% FBS, 16 h, CellTiter-Glo.
Setting [4] is: TR-FRET, Mcl-1(171-327) / biotin-Bim (51-76).
[5] abbreviates: Homo sapiens, OPM-2, 16 h, read-out: OPM-2 10% FBS IC50 IP, OPM-2 cells, 10% FBS, 16 h incubation.
Setting [6] is: 0.1 nM Mcl-1(171-327), 0.05 nM biotin-Bim (51-76).
The mark [7] stands for this setting: read-out: OPM-2 10% FBS IC50 IP, OPM-2 cells, 10% FBS, 16 h, CellTiter-Glo.

recombinant human Mcl-1 (residues 171-327) / Bim interaction, sequence (Q07820 171-327): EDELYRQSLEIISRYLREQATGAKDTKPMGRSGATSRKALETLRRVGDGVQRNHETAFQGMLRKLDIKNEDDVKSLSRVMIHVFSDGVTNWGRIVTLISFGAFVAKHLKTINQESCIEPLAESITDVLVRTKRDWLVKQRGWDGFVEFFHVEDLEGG

As for `CC(=O)N[C@@]1(CN2CCOCC2)CCC[C@H](C)[C@@H](C)S(=O)(=O)NC(=O)c2ccc3c(c2)N(C[C@@H]2CC[C@H]21)C[C@@]1(CCCc2cc(Cl)ccc21)CO3` [Example 100272, N-((1S,3′R,6′R,7′S,11′S,12′R)-6-chloro-11′,12′-dimethyl-7′-(4-morpholinylmethyl)-13′,13′-dioxido-15′-oxo-3,4-dihydro-2H-spiro[naphthalene-1,22′-[20]oxa[13]thia[1,14]diazatetracyclo [14.7.2.0~3,6~.0~19,24~]pentacosa[16,18,24]trien]-7′-yl)acetamide], the IC50 (as a rule, the midpoint of a concentration-inhibition curve) was 349 nM in test [1] (setting [3]) and 0.401 nM in test [2] (setting [4]).
As for `CCO[C@@]1(CN2CCN3CCOC[C@@H]3C2)/C=C/C[C@H](C)[C@@H](CC2CCC2)S(=O)(=O)NC(=O)c2ccc3c(c2)N(C[C@@H]2CC[C@H]21)C[C@@]1(CCCc2cc(Cl)ccc21)CO3` [Example 44, (1S,3′R,6′R,7′S,8′E,11′S,12′R)-6-chloro-12′-(cyclobutylmethyl)-7′-ethoxy-7′-((9aS)-hexahydropyrazino[2,1-c][1,4]oxazin-8(1H)-ylmethyl)-11′-methyl-3,4-dihydro-2H,15′H-spiro[naphthalene-1,22′-[20]oxa[13]thia[1,14]diazatetracyclo [14.7.2.0~3,6~.0~19,24~]pentacosa[8,16,18,24]tetraen]-15′-one 13′,13′-dioxide], the IC50 was found to be 1360 nM in test [1] (setting [5]) and 0.288 nM in test [2] (setting [6]).
As for `C[C@@H]1[C@@H](C)CCCC(CN2CCOCC2)(CN2CCOCC2)[C@@H]2CC[C@H]2CN2C[C@@]3(CCCc4cc(Cl)ccc43)COc3ccc(cc32)C(=O)NS1(=O)=O` [Example 100452, (1S,3′R,6′R,11′S,12′R)-6-chloro-11′,12′-dimethyl-7′,7′-bis(4-morpholinylmethyl)-3,4-dihydro-2H,15′H-spiro[naphthalene-1,22′-[20]oxa[13]thia[1,14]diazatetracyclo [14.7.2.0~3,6~.0~19,24~]pentacosa[16,18,24]trien]-15′-one 13′,13′-dioxide], the IC50 turned out to be 157 nM in test [1] (setting [3]) and 0.077 nM in test [2] (setting [4]).
In the case of `CCO[C@]1(CN2CCN3CCCC[C@@H]3C2)/C=C/C[C@H](C)[C@@H](C)S(=O)(=O)NC(=O)c2ccc3c(c2)N(C[C@@H]2CC[C@H]21)C[C@@]1(CCCc2cc(Cl)ccc21)CO3` [Example 108, (1S,3′R,6′R,7′R,8′E,11′S,12′R)-6-chloro-7′-ethoxy-11′,12′-dimethyl-7′-((9aR)-octahydro-2H-pyrido[1,2-a]pyrazin-2-ylmethyl)-3 ,4-dihydro-2H,15′H-spiro[naphthalene-1,22′-[20]oxa[13]thia[1,14]diazatetracyclo [14.7.2.0~3,6~.0~19,24~]pentacosa[8,16,18,24]tetraen]-15′-one 13′,13′-dioxide], the IC50 was 116 nM in test [1] (setting [5]) and 0.198 nM in test [2] (setting [6]).
Regarding `CO[C@@]1(C[C@H](O)c2ccccn2)/C=C/C[C@H](C)[C@@H](C)S(=O)(=O)NC(=O)c2ccc3c(c2)N(C[C@@H]2CC[C@H]21)C[C@@]1(CCCc2cc(Cl)ccc21)CO3` (single isomer, unassigned) [Example 100489], the values for the IC50 in test [1] (setting [7]) and in test [2] (setting [4]) were 182 nM and 0.88 nM, respectively.
Turning to `COC[C@@H]1[C@@H](C)C/C=C/[C@](CN2CCN3CCOC[C@@H]3C2)(OC)[C@@H]2CC[C@H]2CN2C[C@@]3(CCCc4cc(Cl)ccc43)COc3ccc(cc32)C(=O)NS1(=O)=O` [Example 168, (1S,3′R,6′R,7′S,8′E,11′S,12′S)-6-chloro-7′-((9aS)-hexahydropyrazino[2,1-c][1,4]oxazin-8(1H)-ylmethyl)-7′-methoxy-12′-(methoxymethyl)-11′-methyl-3,4-dihydro-2H,15′H-spiro[naphthalene-1,22′-[20]oxa[13]thia[1,14]diazatetracyclo [14.7.2.0~3,6~.0~19,24~]pentacosa[8,16,18,24]tetraen]-15′-one 13′,13′-dioxide], the figures for the IC50 in test [1] (setting [5]) and in test [2] (setting [6]) were 52 nM and 0.138 nM, respectively.
Take `CO[C@@]1(CC(=O)On2nnc3cccnc32)/C=C/C[C@H](C)[C@@H](C)S(=O)(=O)NC(=O)c2ccc3c(c2)N(C[C@@H]2CC[C@H]21)C[C@@]1(CCCc2cc(Cl)ccc21)CO3` [Example 100576, (1S,3′R,6′R,7′S,8′E,11′S,12′R)-6-chloro-7′-methoxy-11′,12′-dimethyl-7′-(2-oxo-2-(3H-[1,2,3]triazolo[4,5-b]pyridin-3-yloxy)ethyl)-3,4-dihydro-2H,15′H-spiro[naphthalene-1,22′-[20]oxa[13]thia[1,14]diazatetracyclo [14.7.2.0~3,6~.0~19,24~]pentacosa[8,16,18,24]tetraen]-15′-one 13′,13′-dioxide]: the IC50 came out at 4090 nM in test [1] (setting [3]) and 1.15 nM in test [2] (setting [4]).
As for `COCC[C@@H]1[C@@H](C)C/C=C/[C@](CN2CCN3CCOC[C@@H]3C2)(OC)[C@@H]2CC[C@H]2CN2C[C@@]3(CCCc4cc(Cl)ccc43)COc3ccc(cc32)C(=O)NS1(=O)=O` [Example 179, (1S,3′R,6′R,7′S,8′E,11′S,12′R)-6-chloro-7′-((9aS)-hexahydropyrazino[2,1-c][1,4]oxazin-8(1H)-ylmethyl)-7′-methoxy-12′-(2-methoxyethyl)-11′-methyl-3,4-dihydro-2H,15′H-spiro[naphthalene-1,22′-[20]oxa[13]thia[1,14]diazatetracyclo [14.7.2.0~3,6~.0~19,24~]pentacosa[8,16,18,24]tetraen]-15′-one 13′,13′-dioxide], the results for the IC50 in test [1] (setting [5]) and in test [2] (setting [6]) were 36 nM and 0.072 nM, respectively.
Consider `C[C@@H]1[C@@H](C)C/C=C/[C@]2(CN3CCN(C)C[C@@H]3CO2)[C@@H]2CC[C@H]2CN2C[C@@]3(CCCc4cc(Cl)ccc43)COc3ccc(cc32)C(=O)NS1(=O)=O` (single isomer, unassigned) [Example 132], for which the IC50 in test [1] (read-out: OPM-2 10% FBS IC50 IP, OPM-2 cells, 10% FBS, 16 h incubation) worked out at 263 nM; in test [2] (setting [6]), 0.613 nM.
As to `C[C@@H]1[C@@H](C)CCC[C@@](O)(CS(=O)(=O)N(C)C(C)(C)C)[C@@H]2CC[C@H]2CN2C[C@@]3(CCCc4cc(Cl)ccc43)COc3ccc(cc32)C(=O)NS1(=O)=O` [Example 100169, 1-((1S,3′R,6′R,7′S,11′S,12′R)-6-chloro-7′-hydroxy-11′,12′-dimethyl-13′,13′-dioxido-15′-oxo-3,4-dihydro-2H-spiro[naphthalene-1,22′-[20]oxa[13]thia[1,14]diazatetracyclo [14.7.2.0~3,6~.0~19,24~]pentacosa[16,18,24]trien]-7′-yl)-N-methyl-N-(2-methyl-2-propanyl)methanesulfonamide], the IC50 in test [1] (setting [7]) was 2270 nM; in test [2] (setting [4]) it was 4.83 nM.
Regarding `CCOC(=O)CN1CCN(C[C@]2(OC)/C=C/C[C@H](C)[C@@H](C)S(=O)(=O)NC(=O)c3ccc4c(c3)N(C[C@@H]3CC[C@H]32)C[C@@]2(CCCc3cc(Cl)ccc32)CO4)CC1` [Example 261, ethyl (4-(((1S,3′R,6′R,7′S,8′E,11′S, 12′R)-6-chloro-7′-methoxy-11′,12′-dimethyl-13′,13′-dioxido-15′-oxo-3,4-dihydro-2H-spiro[naphthalene-1,22′-[20]oxa[13]thia[1,14]diazatetracyclo [14.7.2.0~3,6~.0~19,24~]pentacosa[8,16,18,24]tetraen]-7′-yl)methyl)-1-piperazinyl)acetate], the IC50 in test [1] (setting [5]) is 146 nM; in test [2] (setting [6]), 0.153 nM.
For `COCC[C@@H]1[C@@H](C)C/C=C/[C@](CN2CCN(C(C)(C)COC)CC2)(OC)[C@@H]2CC[C@H]2CN2C[C@@]3(CCCc4cc(Cl)ccc43)COc3ccc(nc32)C(=O)NS1(=O)=O` [Example 27, (1S,3′R,6′R,7′S,8′E,11′S,12′R)-6-chloro-7′-methoxy-7′-((4-(2-methoxy-1,1-dimethylethyl)-1-piperazinyl)methyl)-12′-(2-methoxyethyl)-11′-methyl-3,4-dihydro-2H,15′H-spiro[naphthalene-1,22′-[20]oxa[13]thia[1,14,25]triazatetracyclo [14.7.2.0~3,6~.0~19,24~]pentacosa[8,16,18,24]tetraen]-15′-one 13′,13′-dioxide], in that order: 29 nM and 0.095 nM.
Consider `CC(C)C[C@]1(O)/C=C/C[C@H](C)[C@@H](C)S(=O)(=O)NC(=O)c2ccc3c(c2)N(C[C@@H]2CC[C@H]21)C[C@@]1(CCCc2cc(Cl)ccc21)CO3` [Example 100224, (1S,3′R,6′R,7′S,8′E,11′S,12′R)-6-chloro-7′-hydroxy-11′,12′-dimethyl-7′-(2-methylpropyl)-3,4-dihydro-2H,15′H-spiro[naphthalene-1,22′-[20]oxa[13]thia[1,14]diazatetracyclo [14.7.2.0~3,6~.0~19,24~]pentacosa[8,16,18,24]tetraen]-15′-one 13′,13′-dioxide], for which the IC50 was determined as 385 nM in test [1] (setting [3]) and 0.345 nM in test [2] (setting [4]).
For `CC(C)[C@]1(O)/C=C/C[C@H](C)[C@@H](C)S(=O)(=O)NC(=O)c2ccc3c(c2)N(C[C@@H]2CC[C@H]21)C[C@@]1(CCCc2cc(Cl)ccc21)CO3` [Example 100208, (1S,3′R,6′R,7′S,8′E,11′S,12′R)-6-chloro-7′-hydroxy-11′,12′-dimethyl-7′-(2-propanyl)-3,4-dihydro-2H,15′H-spiro[naphthalene-1,22′-[20]oxa[13]thia[1,14]diazatetracyclo [14.7.2.0~3,6~.0~19,24~]pentacosa[8,16,18,24]tetraen]-15′-one 13′,13′-dioxide], in that order: 318 nM and 0.431 nM.
